# Measured values taken from patent US20080070909A1, “ENANTIOMERICALLY PURE BETA AGONISTS, MANUFACTURING AND USE THEREOF” (priority 2006, published 2008).
smiles,measurement,value
"CCC1(CC)OC(=O)N(CCC(C)(C)NCC(O)c2ccc(O)c(NS(C)(=O)=O)c2)c2ccccc21 (stereo not shown) [Example 10, N-(5-{2-[3-(4,4-diethyl-2-oxo-4H-benzo[d][1,3]oxazin-1-yl)-1,1-dimethyl-propylamino]-1-hydroxy-ethyl}-2-hydroxy-phenyl)-methanesulphonamide]",melting point,168 °C
